Target: T1, ROCK2 (Homo sapiens, UniProt O75116)
T1 construct: purchased Thermo Fisher Scientific (Life Technologies) SelectScreen
Experiment: SelectScreen Z'LYTE
Assay type: biochemical
Procedure, shortened: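 NU5455 was profiled across the SelectScreen Broad panel of kinase activity and binding assays. Z'LYTE reactions such as CSF1R ran at apparent Km ATP, while the Adapta CAMK1 assay used ATP listed as 10. Values are given as percent.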

T1 sequence (O75116 whole entry): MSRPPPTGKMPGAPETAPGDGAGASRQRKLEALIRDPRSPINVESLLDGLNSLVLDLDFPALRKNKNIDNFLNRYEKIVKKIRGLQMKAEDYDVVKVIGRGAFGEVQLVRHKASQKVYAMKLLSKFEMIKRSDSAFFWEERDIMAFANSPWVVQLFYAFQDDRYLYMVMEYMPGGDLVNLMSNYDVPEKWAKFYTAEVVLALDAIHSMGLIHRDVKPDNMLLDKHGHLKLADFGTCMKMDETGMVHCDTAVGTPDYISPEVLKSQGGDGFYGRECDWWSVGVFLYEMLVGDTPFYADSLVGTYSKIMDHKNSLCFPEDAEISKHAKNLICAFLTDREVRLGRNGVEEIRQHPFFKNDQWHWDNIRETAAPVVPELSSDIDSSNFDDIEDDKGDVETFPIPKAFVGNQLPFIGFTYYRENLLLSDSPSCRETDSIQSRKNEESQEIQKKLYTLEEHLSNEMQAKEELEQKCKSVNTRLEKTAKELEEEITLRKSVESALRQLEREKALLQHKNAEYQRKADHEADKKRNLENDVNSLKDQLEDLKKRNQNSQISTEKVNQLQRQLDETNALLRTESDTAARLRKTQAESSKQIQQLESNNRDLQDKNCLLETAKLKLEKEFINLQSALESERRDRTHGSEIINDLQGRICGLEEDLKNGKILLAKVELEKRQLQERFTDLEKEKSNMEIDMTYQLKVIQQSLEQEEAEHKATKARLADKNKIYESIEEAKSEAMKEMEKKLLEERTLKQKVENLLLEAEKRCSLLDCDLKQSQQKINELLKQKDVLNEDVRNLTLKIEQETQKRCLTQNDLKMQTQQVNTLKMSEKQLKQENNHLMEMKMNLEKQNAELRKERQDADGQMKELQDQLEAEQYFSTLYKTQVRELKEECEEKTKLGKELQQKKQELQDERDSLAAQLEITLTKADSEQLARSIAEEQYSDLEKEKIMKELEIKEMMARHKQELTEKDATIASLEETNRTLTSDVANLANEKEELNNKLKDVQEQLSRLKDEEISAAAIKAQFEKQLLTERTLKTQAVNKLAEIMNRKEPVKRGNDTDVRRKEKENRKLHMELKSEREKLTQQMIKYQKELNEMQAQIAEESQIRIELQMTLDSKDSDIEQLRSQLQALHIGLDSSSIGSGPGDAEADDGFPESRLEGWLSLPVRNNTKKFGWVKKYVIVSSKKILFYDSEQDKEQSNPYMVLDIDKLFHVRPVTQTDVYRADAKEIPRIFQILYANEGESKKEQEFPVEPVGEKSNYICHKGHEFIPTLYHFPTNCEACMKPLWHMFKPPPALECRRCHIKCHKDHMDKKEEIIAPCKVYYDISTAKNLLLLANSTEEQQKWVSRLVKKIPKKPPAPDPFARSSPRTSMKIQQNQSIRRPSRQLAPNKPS

`CN(C(=O)CN1CCOCC1)c1ccc2sc3c(-c4cccc5c(=O)cc(N6CC7CCC(C6)O7)oc45)cccc3c2c1` [NU5455] gave an inhibition at 1 µM of -4.1%.
